Results reported in a melting point compilation (Tetko et al.).

melting point [°C] | SMILES
54 | CCCCCCCOc1ccc(-c2ccc(C#N)cc2)cc1
75 | CNC(=S)NCc1ccccc1
80 | CC1CCC(C)(COC(=O)c2ccccc2C(=O)OCC2(C)CCC(C)C2(C)C)C1(C)C (stereo unspecified)
29 to 31 | FC(F)(F)c1cc(Cl)c(I)c(Br)c1
210 to 213 | CC(c1ccccc1)N1CC(C(=O)O)CC1=O (stereo unspecified)
150 | O=Cc1ccc(-c2ccc(C(=O)O)cc2)cc1
115 to 117 | O=C(CBr)c1ccc(-c2ccccc2)s1
168 | O=C(O)CNC(=O)c1ccccc1O
131 | O=C(O)[C@H](O)[C@@H](O)[C@H](O)[C@H](O)CO
70 | BrCc1cccc(-c2ccsc2)c1
187 | CCc1nc(CC)nc(NS(=O)(=O)c2ccc(N)cc2)n1
85 to 89 | ON=C(Cl)c1c(Cl)cccc1Cl
171 | COc1ccc(C(=O)CCC(=O)O)cc1F
-25 | CCOCCOCCOC(C)=O
-121 | CCCC(C)CCC
86 to 89 | COC(=O)c1ccc(Oc2cc(Cl)cc(Cl)c2)o1
125 to 132 | Cn1ccc(-c2ccc(N)cc2)n1
118 to 120 | OCc1csc(N2CCOCC2)n1
182 | O=C1C(c2ccccn2)=[N+]([O-])c2ccccc21
300 | S=c1oc(-c2cc3ccccc3o2)nn1CCl
141 | Nc1cccc(S(N)(=O)=O)c1
214 to 218 | O=C(O)/C=C/c1ccc(F)cc1F

melting point [°C] | SMILES
81 | CC=Cc1cccc(OC)c1O
308 to 310 | Cc1nn(C)c(Cl)c1S(=O)(=O)O
108 | CC1COc2ccccc2N1C(=O)C(Cl)Cl (stereo unspecified)
31.5 to 36 | CC(O)CN(CCO)CCO (stereo unspecified)
244 to 246 | CC(C)=NNC(=O)c1cc(C)on1
209 to 212 | COc1cccc(C=Nn2c(C)cc(C)c(C#N)c2=O)c1O
84 to 86 | COC(=O)c1c(C)noc1-c1cc(C)on1
130 to 132 | CC(=O)c1cc(-c2ccc(Cl)c(Cl)c2)no1
200 to 202 | CC(=O)Nc1ccsc1C(=O)O
112 to 114 | NNC(=S)NCCc1ccccc1
157 | O=C(O)Cc1ccccc1Nc1c(Cl)cccc1Cl
234 | Cc1c(Cl)cccc1Nc1ncccc1C(=O)O
151 to 155 | COC(=O)c1sc(SC)c(S(=O)(=O)C(C)C)c1N
143 to 146 | O=C(O)c1ccc2c(c1)OCCCO2
115 | c1ccc(COc2ccc3cc[nH]c3c2)cc1
152 | O=Cc1ccc2nccn2c1
101 | O=c1c2ccccc2cc2n1CCc1ccccc1-2
109 | Cc1cccc2ccoc12
138 | COc1cc2c(cc1C)C(C(=O)O)C2 (stereo unspecified)
118 | O=C1C(=Cc2ccccc2)CCCC1=Cc1ccccc1
36 to 40 | Cc1nn(C)c(C)c1N=C=O
-55 | FC(F)(F)C1(F)C(F)(F)C(F)(F)C(F)(F)C(F)(C(F)(F)F)C1(F)F (stereo unspecified)

melting point [°C] | SMILES
212 | CC1=CC(=C(C#N)C#N)C=C(C=Cc2ccc(N(C)C)cc2)O1
170 | COc1ccc(-c2onc(C(=O)c3ccc(C)cc3)c2S(=O)(=O)c2ccccc2)cc1
152 to 160 | CC(CCC(=O)O)C1CCC2C3C=CC4CCCCC4(C)C3CCC12C (stereo unspecified)
164 to 166 | O=C(O)C1C2CC3(OCCO3)C1CC2Cl (stereo unspecified)
155 to 156 | Nc1nc(Br)c2ccccc2c1Cc1ccccc1
148 to 151 | COc1ccc(C#N)cc1[N+](=O)[O-]
27 | Cc1ccc2cccc(C)c2n1
140 | CC1=NN(c2ccccc2)C(=O)C1Cc1ccccc1O (stereo unspecified)
159 | Nc1ccc([N+](=O)[O-])c(Cl)c1
165 | NS(=O)(=O)c1ccc(S(=O)(=O)CCO)cc1
206 | CN=C(NC)c1cc(C(C)(C)C)c(O)c(C(C)(C)C)c1
32 | CCCCCCCCc1ccc(C(Cl)=Cc2ccc(OCC)cc2)cc1
122 to 123 | O=Cc1ccc(-c2ccccn2)s1
68 to 69 | CNCc1ccc(-c2ccsc2)cc1
224 | Cc1nc2cc([N+](=O)[O-])ccc2[nH]1
182 to 192 | COc1cc(OC(C)=O)c2c(=O)c(OC(C)=O)c(-c3ccc(OCc4ccccc4)c(OC(C)=O)c3)oc2c1
82 to 84 | Cc1nc(-c2ccc(C(F)(F)F)cc2)sc1C(=O)CBr
53 | O=S(=O)(CF)c1ccccc1
-78.1 | CC(C)SC(C)C
61 to 65 | CCCCCCCCCCOc1ccc(C(C)=O)cc1OCCCCCCCCCC
44 | Cc1cc(C)c(N)c(Br)c1
109 to 111 | CC(C)(C)OC(=O)N1CCN(c2ccc(CO)cc2)CC1

melting point [°C] | SMILES
177 | CC(=O)N(CC(O)CO)c1c(I)c(C(=O)NCC(O)CO)c(I)c(C(=O)NCC(O)CO)c1I (stereo unspecified)
147 to 148 | O=Cc1ccc(-c2cncnc2)cc1
159 | COC(=O)C=Cc1ccc(C=CC(=O)OC)c(N)c1
53 | C[C@H](O)CC[C@H](C)O
185 | Cc1c(N/N=C2/C(=O)N(c3ccccc3)N=C2C(F)(F)F)c(=O)n(-c2ccccc2)n1C
206 | CC(=O)OC1(C(C)=O)CCC2C3CC(C(F)(F)F)C4=CC(=O)CCC4(C)C3CCC21C (stereo unspecified)
197 to 202 | O=C(O)C=Cc1ccccc1C(=O)O
201 | CC(C)(C)NC(=O)C(C(F)(F)F)C(F)(F)F
73 | CCc1ccc(C#Cc2ccc(C)cc2)cc1
99 to 101 | O=C(NCN(CNC(=O)c1ccccc1)N(CNC(=O)c1ccccc1)CNC(=O)c1ccccc1)c1ccccc1
10 | NCCCNCCN
31.5 | CC(=O)c1ccc(F)cc1O
66.5 to 69.8 | CCOC(=O)c1csc(C2COc3ccccc3O2)n1 (stereo unspecified)
300 | Cc1ccc2c(O)c(-c3ccccc3)c(=O)[nH]c2c1
53 to 57 | O=S(=O)(Cl)c1cc(Cl)cc(Cl)c1
72 | O=COc1ccc([N+](=O)[O-])cc1
132 to 134 | Nc1ccc(Oc2ccc([N+](=O)[O-])cc2)cc1
232 to 234 | Nc1cc(=O)oc2ccccc12
90 | CC(=O)c1ccc[nH]1
76 | CCCCCCN(CCCCCC)C1=NC(=Cc2ccccc2)C(=O)N1c1ccccc1

SMILES | melting point [°C]
O=C1C=Cc2ccccc2C1=O | 136 to 141
C=C[N+](=O)[O-] | -55.5
CCc1cccc(CC)c1NC(=O)CCl | 130
CCC1CN2CCC1CC2C(O)c1ccnc2ccccc12 (stereo unspecified) | 268
O=c1[nH]nc([N+](=O)[O-])c(Cl)c1Cl | 184 to 186
